Molecules are shown by their SMILES. Some results are limits rather than exact numbers.

For this assay, the system named is SU-DHL-4 cell line. Kind of assay: SU-DHL-4 cell proliferation assay (Cell Titer-Glo viability). In kind it is cell-based. As to conditions: Homo sapiens; cell viability IC50 activity level, DLBCL cell line SU-DHL-4, 120 hours post-treatment; read-out: SU-DHL-4 Act. An outline of the steps:
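SU-DHL-4 cells (500/well, RPMI-1640 + 10% FBS) exposed to 20-point compound dilutions (0.5 nM–10 μM, 0.1% DMSO) for 120 h at 37°C, 5% CO2. Viability measured by Cell Titer-Glo luminescence at t0 and at 120 h. IC50 is the concentration giving 50% of DMSO control, from a four-parameter logistic fit.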
In the case of `N#Cc1cccc(C2CN(Cc3ccc(CNc4cccc5c4C(=O)N(C4CCC(=O)NC4=O)C5=O)c(F)c3)C2)c1` (stereo not drawn) [Cpd 121, 3-(1-(4-((2-(2,6-dioxopiperidin-3-yl)-1,3-dioxoisoindolin-4-ylamino)methyl)-3-fluorobenzyl)azetidin-3-yl)benzonitrile], the IC50 is under 200 nM. Under `CN1CCC2(CCN(Cc3ccc(CNc4cccc5c4C(=O)N(C4CCC(=O)NC4=O)C5=O)cc3)CC2)C1=O` (stereo not drawn) [Cpd 122, 2-(2,6-dioxopiperidin-3-yl)-4-(4-((2-methyl-1-oxo-2,8-diazaspiro[4.5]decan-8-yl)methyl)benzylamino)isoindoline-1,3-dione] stands 200 to 500 nM; under `O=C1CCC(N2C(=O)c3cccc(NCc4ccc(CN5CCC(F)(c6ccccn6)CC5)cc4F)c3C2=O)C(=O)N1` (stereo not drawn) [Cpd 168, 2-(2,6-dioxopiperidin-3-yl)-4-(2-fluoro-4-((4-fluoro-4-(pyridin-2-yl)piperidin-1-yl)methyl)benzylamino)isoindoline-1,3-dione], under 200 nM. Under `Cc1cc(CNc2cccc3c2C(=O)N(C2CCC(=O)NC2=O)C3=O)ccc1CN1CCC2(CCOCC2)CC1` (stereo not drawn) [Cpd 236, 4-(4-(3-oxa-9-azaspiro[5.5]undecan-9-ylmethyl)-3-methylbenzylamino)-2-(2,6-dioxopiperidin-3-yl)isoindoline-1,3-dione] stands under 200 nM; under `Cc1cc(CNc2cccc3c2C(=O)N(C2CCC(=O)NC2=O)C3=O)ccc1CN1CC2(CCCCC2)C1` (stereo not drawn) [Cpd 75, 4-(4-(2-azaspiro[3.5]nonan-2-ylmethyl)-3-methylbenzylamino)-2-(2,6-dioxopiperidin-3-yl)isoindoline-1,3-dione], under 200 nM; under `CCC1(OC)CCN(Cc2ccc(CNc3cccc4c3C(=O)N(C3CCC(=O)NC3=O)C4=O)cc2)CC1` (stereo not drawn) [Cpd 128, 2-(2,6-dioxopiperidin-3-yl)-4-(4-((4-ethyl-4-methoxypiperidin-1-yl)methyl)benzylamino)isoindoline-1,3-dione], 200 to 500 nM. Take `CN(C)C(=O)c1ccc(N2CCN(Cc3ccc(CNc4cccc5c4C(=O)N(C4CCC(=O)NC4=O)C5=O)cc3)CC2)cn1` (stereo not drawn) [Cpd 55, 5-(4-(4-((2-(2,6-dioxopiperidin-3-yl)-1,3-dioxoisoindolin-4-ylamino)methyl)benzyl)piperazin-1-yl)-N,N-dimethylpicolinamide]: the IC50 fell in the range of 200 to 500 nM. The same measure for `Cc1cc(CNc2cccc3c2C(=O)N(C2CCC(=O)NC2=O)C3=O)ccc1CN1CCN(c2ccc(C#N)cc2C)CC1` (stereo not drawn) [Cpd 60, 4-(4-(4-((2-(2,6-dioxopiperidin-3-yl)-1,3-dioxoisoindolin-4-ylamino)methyl)-2-methylbenzyl)piperazin-1-yl)-3-methylbenzonitrile]: under 200 nM; for `N#Cc1ccc(C2CN(Cc3ccc(CNc4cccc5c4C(=O)N(C4CCC(=O)NC4=O)C5=O)cc3F)C2)cc1` (stereo not drawn) [Cpd 102, 4-(1-(4-((2-(2,6-dioxopiperidin-3-yl)-1,3-dioxoisoindolin-4-ylamino)methyl)-2-fluorobenzyl)azetidin-3-yl)benzonitrile]: under 200 nM.

For the origin of these results see patent publication US11358952B2, “Substituted 4-aminoisoindoline-1,3-dione compounds, compositions thereof, and methods of treatment therewith” (Celgene Corporation, priority 2018, dated 2022).
